Legend:
Cryptosporidium parvum = experiment: Antiparasitic activity against Cryptosporidium parvum in HCT8 cells; type: functional, organism-based; conditions: HCT-8
Meriones unguiculatus [1] = experiment: Reduction of oocyst in stools of Cryptosporidium parvum infected gerbils treated with 400 mg/kg at day 8; type: functional; set-up: scale not given: the % may be the effect or the level left
Meriones unguiculatus [2] = experiment: Deparasitization of Cryptosporidium parvum infected gerbils treated with 400 mg/kg at day 12; type: functional
Meriones unguiculatus [3] = experiment: Reduction of oocyst in stools of Cryptosporidium parvum infected gerbils treated with 400 mg/kg at day 12; type: functional; set-up: scale not given: the % may be the effect or the level left
Trichomonas vaginalis = experiment: Antiparasitic activity against Trichomonas vaginalis in […] cells; type: functional, organism-based; conditions: UCH-1
Plasmodium falciparum = experiment: Antiparasitic activity against Plasmodium falciparum T9-96 infected […] cells; type: functional, organism-based
Meriones unguiculatus [4] = experiment: Deparasitization of Cryptosporidium parvum infected gerbils treated with 200 mg/kg at day 8; type: functional
Meriones unguiculatus [5] = experiment: Deparasitization of Cryptosporidium parvum infected gerbils treated with 400 mg/kg at day 8; type: functional
Meriones unguiculatus [6] = experiment: Reduction of oocyst in stools of Cryptosporidium parvum infected gerbils treated with 200 mg/kg at day 8; type: functional; set-up: scale not given: the % may be the effect or the level left
Meriones unguiculatus [7] = experiment: Deparasitization of Cryptosporidium parvum infected gerbils treated with 100 mg/kg at day 8; type: functional
Meriones unguiculatus [8] = experiment: Reduction of oocyst in stools of Cryptosporidium parvum infected gerbils treated with 100 mg/kg at day 8; type: functional; set-up: scale not given: the % may be the effect or the level left

Compound | IC50 (Cryptosporidium parvum) | further results
O=C(Cc1ccc([N+](=O)[O-])cc1)c1c(O)cc(O)cc1O | 70.8 µM | 
O=C(O)c1oc2cc(O)cc(O)c2c(=O)c1-c1cccc(Br)c1 | 20.1 µM | 
CCOC(=O)c1oc2cc(O)cc(O)c2c(=O)c1-c1ccc([N+](=O)[O-])cc1 | 64.1 µM | 
O=C(Cc1ccc(Br)cc1)c1c(O)cc(O)cc1O | 15.9 µM | 
O=C(Cc1cccc([N+](=O)[O-])c1)c1c(O)cc(O)cc1O | 464 µM | 
CCOC(=O)c1oc2cc(O)cc(O)c2c(=O)c1-c1cccc([N+](=O)[O-])c1 | 15.8 µM | 
O=C(Cc1cccc(Br)c1)c1c(O)cc(O)cc1O | 17.2 µM | 
CC(=O)Oc1ccccc1C(=O)Nc1ncc([N+](=O)[O-])s1 [NITAZOXANIDE] | 3.25 µM | Activity (Meriones unguiculatus [4]): 14%; Activity (Meriones unguiculatus [6]): 55%
NC[C@@H]1O[C@H](O[C@H]2[C@@H](O)[C@H](O[C@@H]3[C@@H](O)[C@H](N)C[C@H](N)[C@H]3O[C@H]3O[C@H](CO)[C@@H](O)[C@H](O)[C@H]3N)O[C@@H]2CO)[C@H](N)[C@@H](O)[C@@H]1O [PAROMOMYCIN] |  | Activity (Meriones unguiculatus [7]): 14%; Activity (Meriones unguiculatus [8]): 17.6%

Second part, led by results:

IC50 (Cryptosporidium parvum) | Compound | further results
0.6 µM | CCOC(=O)c1oc2cc(O)cc(O)c2c(=O)c1-c1ccc(Br)cc1 | Activity (Meriones unguiculatus [1]): 53.5%; Activity (Meriones unguiculatus [2]): 13%; Activity (Meriones unguiculatus [3]): 67%
11.7 µM | O=C1c2c(O)cc(O)cc2OCC1c1ccc([N+](=O)[O-])cc1 (stereo not drawn) | 
1.8 µM | O=c1c(-c2ccc([N+](=O)[O-])cc2)coc2cc(O)cc(O)c12 | IC50 (Trichomonas vaginalis): 8 µM; IC50 (Plasmodium falciparum): 20 µM
0.3 µM | O=c1c(-c2cccc([N+](=O)[O-])c2)coc2cc(O)cc(O)c12 | 
1.3 µM | O=c1c(-c2ccc(Br)cc2)coc2cc(O)cc(O)c12 | 
0.4 µM | O=c1c(-c2cccc(Br)c2)coc2cc(O)cc(O)c12 | 
1.6 µM | CCOC(=O)c1oc2cc(O)cc(O)c2c(=O)c1-c1cccc(Br)c1 | Activity (Meriones unguiculatus [1]): 92%; Activity (Meriones unguiculatus [4]): 60%; Activity (Meriones unguiculatus [5]): 60%; Activity (Meriones unguiculatus [6]): 90.5%

— ChEMBL document CHEMBL1149465, “Identification of isoflavone derivatives as effective anticryptosporidial agents in vitro and in vivo” (J Med Chem, 2006)
